Measurements: the supplement of paper PMC10011410
± gives the standard deviation of the averaged measurements.

Legend:
U-2 OS [1] = assay: relative cell count vs DMSO (cell painting) (fraction of DMSO control); higher = more cells remaining (less cytotoxic); settings: 24 h
Method in brief: (§1)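 Images taken on an Opera Phenix of U-2 OS cells stained with MitoTracker, concanavalin A, phalloidin, wheat germ agglutinin, Hoechst and SYTO 14 were processed in CellProfiler, with features normalized to DMSO cells on the same plate. The cells, about 1,500 per well in 384-well plates, had been treated by pin tool for 24 h at 37 °C, usually at six 2-fold concentrations from 20 μM to 625 nM. The activity score measures Mahalanobis distance from DMSO wells, and cell count is expressed relative to DMSO wells. Each value averages four replicate plates.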

U-2 OS [2] = assay: cell painting activity score (Mahalanobis distance from DMSO wells); higher = stronger morphological phenotype; settings: 24 h
Method in brief: as §1

U-2 OS [3] = assay: AUC of culture confluence over time (live-cell imaging) (AUC (confluence % x time)); higher = more confluent culture (less growth inhibition)
Method in brief: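 The value is the area under the curve of confluence plotted against time. U-2 OS cells in F-12K medium with 10% FBS were seeded at 750 per well in 384-well plates, then treated by pin tool 24 h later, most compounds at 20, 10 and 5 μM with 0.2% DMSO. At 37 °C, an Incucyte S3 with a 10x objective imaged the wells every 4 h for up to 60 h.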

U-2 OS [4] = assay: cell viability (CellTiter-Glo) relative to DMSO (% of control); higher = more viable; settings: 24 h
Procedure: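 Cell viability of U-2 OS cells by CellTiter-Glo after 24 h compound treatment at 5, 10 and 20 uM (some at 40 and 80 uM), measured in parallel with the glutathione assay, as percent of DMSO control. Five technical replicate plates, averaged.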

U-2 OS [5] = assay: intracellular GSH:GSSG ratio (calculated); higher = more reduced glutathione pool; settings: 24 h
Procedure: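 Intracellular glutathione in U-2 OS cells after 24 h compound treatment at 5, 10 and 20 uM (some at 40 and 80 uM). Total glutathione and GSSG were measured with the GSH/GSSG-Glo kit, and the GSH:GSSG ratio was calculated. Mean of five technical replicate plates.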

U-2 OS [6] = assay: total intracellular glutathione (GSH + GSSG) relative to DMSO (% of control); higher = more glutathione; settings: 24 h
Procedure: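 Total intracellular glutathione (GSH + GSSG) in U-2 OS cells by GSH/GSSG-Glo after 24 h compound treatment at 5, 10 and 20 uM (some at 40 and 80 uM), as percent of DMSO control. Five technical replicate plates, averaged.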

Structure (SMILES) | relative cell count (U-2 OS [1]; 0.625 µM) | relative cell count (U-2 OS [1]; 1.25 µM) | relative cell count (U-2 OS [1]; 2.5 µM) | relative cell count (U-2 OS [1]; 5 µM) | relative cell count (U-2 OS [1]; 10 µM) | relative cell count (U-2 OS [1]; 20 µM) | relative cell count (U-2 OS [1]; 40 µM) | relative cell count (U-2 OS [1]; 80 µM) | cell painting activity score (U-2 OS [2]; 0.625 µM) | cell painting activity score (U-2 OS [2]; 1.25 µM) | cell painting activity score (U-2 OS [2]; 2.5 µM) | cell painting activity score (U-2 OS [2]; 5 µM) | cell painting activity score (U-2 OS [2]; 10 µM) | cell painting activity score (U-2 OS [2]; 20 µM) | cell painting activity score (U-2 OS [2]; 40 µM) | cell painting activity score (U-2 OS [2]; 80 µM) | AUC of culture confluence over time (U-2 OS [3]; 5 µM) | AUC of culture confluence over time (U-2 OS [3]; 10 µM) | AUC of culture confluence over time (U-2 OS [3]; 20 µM) | AUC of culture confluence over time (U-2 OS [3]; 40 µM) | AUC of culture confluence over time (U-2 OS [3]; 80 µM) | cell viability (U-2 OS [4]; 5 µM) | cell viability (U-2 OS [4]; 10 µM) | cell viability (U-2 OS [4]; 20 µM) | cell viability (U-2 OS [4]; 40 µM) | cell viability (U-2 OS [4]; 80 µM) | intracellular GSH:GSSG ratio (U-2 OS [5]; 5 µM) | intracellular GSH:GSSG ratio (U-2 OS [5]; 10 µM) | intracellular GSH:GSSG ratio (U-2 OS [5]; 20 µM) | intracellular GSH:GSSG ratio (U-2 OS [5]; 40 µM) | intracellular GSH:GSSG ratio (U-2 OS [5]; 80 µM) | total intracellular glutathione (U-2 OS [6]; 5 µM) | total intracellular glutathione (U-2 OS [6]; 10 µM) | total intracellular glutathione (U-2 OS [6]; 20 µM) | total intracellular glutathione (U-2 OS [6]; 40 µM) | total intracellular glutathione (U-2 OS [6]; 80 µM)
Cc1cc2c(C(C)C)c(O)c(O)c(C=O)c2c(O)c1-c1c(C)cc2c(C(C)C)c(O)c(O)c(C=O)c2c1O | 1.09 | 1.1 | 1.09 | 1.02 | 0.937 | 0.551 | 0.246 | 0.261 | 3.83 | 4.24 | 4.3 | 5.05 | 15.5 | 17.8 | 22.1 | 24.1 | 48.5 | 36.2 | 32.6 | 18.2 | 18.5 | 96.4 ± 1.8 | 88.1 ± 5.2 | 68.2 ± 2.1 | 42.7 ± 11 | 5.12 ± 1.6 | 16.4 | 15.8 | 7.02 | 3.8 | 1.25 | 92.2 ± 3.2 | 70 ± 4.9 | 63.3 ± 3.2 | 62.8 ± 3.7 | 18.2 ± 4.2
CCN1CCN(c2ccc3nsnc3c2[N+](=O)[O-])CC1 | 0.938 | 0.946 | 0.945 | 0.908 | 0.929 | 0.955 |  |  | 3.95 | 4.39 | 4.69 | 6.21 | 4.95 | 5.29 |  |  | 45 | 46.2 | 42.9 |  |  | 105 ± 5.4 | 103 ± 4.1 | 106 ± 5.4 |  |  | 16.2 | 18.8 | 13.3 |  |  | 100 ± 6.2 | 98.1 ± 3.7 | 91.3 ± 3.3 |  | 
O=C(NNS(=O)(=O)c1ccccc1F)c1cc(F)cc(-c2ccccn2)c1 | 1 | 0.967 | 0.966 | 0.955 | 0.925 | 0.939 |  |  | 4.25 | 5.31 | 5.99 | 9.11 | 10.5 | 9.4 |  |  | 47.7 | 48.6 | 51.9 |  |  | 97.4 ± 5.8 | 97.1 ± 5.3 | 97.2 ± 4.7 |  |  | 21.6 | 19.3 | 22.2 |  |  | 101 ± 5.7 | 103 ± 5.3 | 104 ± 5.1 |  | 
